According to patent EP1724268A1, “COMPOUND HAVING TGF-BETA INHIBITORY ACTIVITY AND PHARMACEUTICAL COMPOSITION CONTAINING SAME” (KIRIN BEER KABUSHIKI KAISHA, priority 2004, dated 2005):
Where two headings read alike, the source gives them in different places.

Tested on: TGFβ signal
Test: TGFβ signal inhibitory activity, (SBE)4-Luc reporter in A549 cells (Test Examples 1A and 1B)
Format: cell-based, human
Details: Homo sapiens, A549, read-out: TGFβ inhibition rate, %
Procedure, shortened: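 Stable A549 line carrying (SBE)4-Luc Smad3-binding reporter treated with compound plus TGFβ-1 (2 ng/ml) for 4 hr; luciferase read by chemiluminescence. Percent inhibition relative to TGFβ-only and untreated cells, tested at 3 µM and 10 µM, some also at 1 µM.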

[1] = 3 µM, compounds of Reference Examples (Test Example 1B)
[2] = 10 µM, compounds of Reference Examples (Test Example 1B)
[3] = test compound 3 µM, Reference Examples, Table 1B
[4] = test compound 10 µM, Reference Examples, Table 1B
[5] = test compound 3 µM, TGFβ-1 2 ng/ml, 4 hr, Table 1A
[6] = test compound 10 µM, TGFβ-1 2 ng/ml, 4 hr, Table 1A

Row | SMILES | inhibition at 3 µM [1] [%] | inhibition at 10 µM [2] [%] | further results
1 | COc1cc2nccc(Oc3cc(C)c(C)cc3/C(C)=N/OCc3ccccc3)c2cc1OC [r198] | 32 | 80 | 
2 | COc1cc2c(Oc3ccc(C)nc3-c3nccs3)ccnc2cc1OCc1ccccc1 [Compound r328] | 100 | 100 | 
3 | COc1cc2nccc(Oc3ccc(C)cc3-c3cccnc3)c2cc1OC [r168] | 22 | 74 | 
4 | CCOC(=O)C(Oc1cc2nccc(Oc3cc4ccccc4nc3C)c2cc1OC)C(=O)OCC [Compound r373] | 48 | 86 | 
5 | COc1cc2c(Oc3cc(C)c(C)cc3C(C)=O)ccnc2cc1OCCN1CCOCC1 [Compound r316] | 99 | 100 | 
6 | CCOC(=O)COc1cc2nccc(Oc3cc4ccccc4nc3C)c2cc1OC [Compound r372] | 14 | 93 | 
7 | CCC(=O)c1cc(C)ccc1Oc1ccnc2cc(OC)c(OC)cc12 [Compound r48] |  |  | inhibition at 3 µM [3]: 98%; inhibition at 10 µM [4]: 100%
8 | CCc1ccc(Oc2ccnc3cc(OC)c(OC)cc23)c(-c2ccccn2)n1 [Compound 37, 3-(6,7-Dimethoxy-quinolin-4-yloxy)-6-ethyl-[2,2']bipyridine] |  |  | inhibition at 1 µM (test compound 1 µM, TGFβ-1 2 ng/ml, 4 hr, Table 1A): 98%; inhibition at 3 µM [5]: 100%
9 | COc1cc2c(Oc3cc4ccccc4nc3C)ccnc2cc1OCCO [Compound r369] | 99 | 100 | 
10 | COc1ccc(Oc2ccnc3cc(OC)c(OC)cc23)cn1 [Compound r207, 6,7-Dimethoxy-4-(6-methoxy-pyridin-3-yloxy)-quinoline] | 77 | 99 | 
11 | COc1cc2c(Oc3cc(C)c(C)cc3C(C)=O)ccnc2cc1OCCCl [Compound r315] | 98 | 100 | 
12 | COc1cc2nccc(Oc3c(OC)cccc3C(C)=O)c2cc1OC [Compound r30] |  |  | inhibition at 3 µM [3]: 0%; inhibition at 10 µM [4]: 61%
13 | CCOc1ccc(Oc2ccnc3cc(OC)c(OC)cc23)c(C(C)=O)c1 [Compound r178, 1-[2-(6,7-Dimethoxy-quinolin-4-yloxy)-5-ethoxy-phenyl]-ethanone] | 66 | 97 | 
14 | COc1cccc(-c2nc(C)ccc2Oc2ccnc3cc(OC)c(OC)cc23)c1 [Compound r238] | 92 | 100 | 
15 | Cc1cc2nccc(Oc3cc(C)c(C)nc3-c3ccccn3)c2cc1C [Compound 170, 3-(6,7-Dimethyl-quinolin-4-yloxy)-5,6-dimethyl-[2,2']bipyridine] |  |  | inhibition at 3 µM [5]: 98%; inhibition at 10 µM [6]: 100%
16 | COc1cc2nccc(Oc3ccc(C)nc3-c3cc(C)nn3C)c2cc1OC [Compound r257] | 15 | 62 | 
17 | COc1cc2nccc(Oc3cc4ccccc4nc3C)c2cc1OCCn1ccnc1 [Compound r416, 6-(2-Imidazol-1-yl-ethoxy)-7-methoxy-4-(2-methyl-quinolin-3-yloxy)-quinoline] | 92 | 100 | 
18 | COc1cc2c(Oc3ccc(C)cc3C(=O)c3ccccc3)ccnc2cc1OCCCN1CCN(C)CC1 [r138] |  |  | inhibition at 3 µM [3]: 96%; inhibition at 10 µM [4]: 100%
19 | COc1cc2c(Oc3cc4ccccc4nc3C)ccnc2cc1CCCN1CCOCC1 [Compound r412] | 77 | 99 | 
20 | COc1cc2nccc(Oc3cc(C)c(C)nc3-c3ccccn3)c2cc1O [Compound 141, 4-(5,6-Dimethyl-[2,2']bipyridinyl-3-yloxy)-7-methoxy-quinolin-6-ol] |  |  | inhibition at 3 µM [5]: 100%; inhibition at 10 µM [6]: 100%
21 | CCc1ccc(Oc2ccnc3cc(C(C)(C)C)sc23)c(-c2ccccn2)n1 [Compound 180, 3-(2-Tert-butyl-thieno[3,2-b]pyridin-7-yloxy)-6-ethyl-[2,2']bipyridine] |  |  | inhibition at 3 µM [5]: 74%; inhibition at 10 µM [6]: 98%
22 | Cc1ccc(-c2nc(C)c(C)cc2Oc2ccnc3ccccc23)nc1 [Compound r431] | 97 | 99 | 
23 | Cc1cc(Oc2ccnc3ccc(-c4csc5ccccc45)cc23)c(-c2ccccn2)nc1C [Compound 164, 3-(6-Benzo[b]thiophen-3-yl-quinolin-4-yloxy)-5,6-dimethyl-[2,2']bipyridine] |  |  | inhibition at 3 µM [5]: 75%; inhibition at 10 µM [6]: 100%
24 | COc1cc2nccc(Oc3cccnc3C)c2cc1OC [r202] | 20 | 54 | 
25 | COc1cc2c(Oc3cc4ccccc4nc3C)ccnc2cc1OCCCCl [Compound r375] | 84 | 100 | 
26 | COc1cc2c(Oc3ccc(C)cc3C(=O)c3ccccc3)ccnc2cc1OCCCn1ccnc1 [r140] |  |  | inhibition at 3 µM [3]: 85%; inhibition at 10 µM [4]: 100%
